Test results published in ChEMBL document CHEMBL1157539, “Thousands of chemical starting points for antimalarial lead identification” (Nature, 2010).

System: Plasmodium falciparum
Experiment: GSK_TCMDC: Inhibition of Plasmodium falciparum 3D7 in whole erythrocytes, using parasite LDH activity as an index of growth.
Type: functional, organism-based

| SMILES | XC50 (Plasmodium falciparum, 3D7) [nM] | XC50 [nM] |
| --- | --- | --- |
| CN(N=Cc1ccccc1)C(=N)NCCCC#Cc1cccc(CN2CCCC2)c1 | 1790 | – |
| Cc1ccc(/C=C/C(=O)NC2CCC(CN3CCC(c4c[nH]c5ccccc45)CC3)CC2)cc1 (stereo unspecified) | 920 | 798 |
| Cc1cc(C=C2SC(=Nc3ccccc3)N(C3CCCC3)C2=O)c(C)n1-c1ccc(Cl)cc1 | 876 | – |
| CCCCCCc1cc2cc(-c3nc(-c4ccc(OC)cc4)cs3)c(=O)oc2cc1O | 816 | – |
| CC(CON1C(N)=NC(N)=NC1(C)C)c1ccc(Cl)cc1Cl (stereo unspecified) | 3.2 | – |
| CC1(C)N=C(N)N=C(N)N1c1cccc(I)c1 | 126 | – |
| CCOC(=O)c1ccc(NC(=O)N[C@@H](Cc2ccccc2)C(=O)NC2CCN(Cc3ccc(O)cc3)C2)cc1 (stereo partly specified) | 628 | – |
| CN(C)CCCOc1ccc(CN2CC[C@H](NC(=O)c3ccc(Cl)c(Cl)c3)C2)cc1Br | 763 | – |
| N=C(N)NC(=O)Nc1cc(Br)c(Cl)c(Br)c1 | 765 | – |
| CCC(C)CN1CCC(N(C)c2cc(NC(=O)c3ccc(F)cc3)ccn2)CC1 (stereo unspecified) | 977 | – |
| CS(=O)(=O)c1ccc(CCNCc2ccc(-c3cccc(-c4nc5ccccc5[nH]4)c3)cc2)cc1 | 194 | – |
| O=C(NCCN1CCOCC1)c1ccc(N2CCC(Oc3ccc4ccccc4c3)CC2)nc1 | 763 | – |
| Fc1ccc2[nH]c3c(NCCCN4CCOCC4)ncnc3c2c1 | 714 | – |
| CC(=O)C1=NN(c2ccc(Cl)cc2)C(c2cccs2)N1c1ccccc1 (stereo unspecified) | 397 | – |
| Cc1ccc(-c2nn3c(O)c4c(nc3c2C)CCCC4)cc1 | 217 | – |
| CC(C)c1cn2c3c(cc(C(=O)N[C@@H](Cc4ccccc4)[C@H](O)CNC4CCOCC4)cc13)N(C)S(=O)(=O)CC2 | 54.5 | – |
| Cc1c(C)c2c(c(C)c1O)CC[C@](C)(C(=O)N1CCC(CN3CCC(c4c[nH]c5ccccc45)CC3)CC1)O2 | 718 | – |
| Cc1nc(C)c(-c2ccc(S(=O)(=O)c3ccc(Cl)cc3)cc2)c(O)c1Br | 38 | – |
| O=C(C=Cc1cccc(F)c1)NC1CCC(CCN2CCc3ccc(-c4cnccn4)cc3CC2)CC1 (stereo unspecified) | 454 | – |
| COc1ccc2nccc([C@@H](O)CN3CCC(NC(=O)C(c4cc5ccccc5s4)N4CC(C)OC(C)C4)CC3)c2c1 (stereo partly specified) | 981 | – |
| CN1CCN(CCCN(Cc2csc(-c3ccc(CNCc4ccccc4)cc3)n2)C(=O)c2cc(F)cc(F)c2)CC1 | 708 | – |
| CN(C)CCCN1CCN(C(=O)c2cc3cc(-c4ccccc4)ccc3n2S(=O)(=O)c2ccccc2)CC1 | 119 | – |
| COc1ccc(-c2ccc(NC(=O)c3cccc(F)c3)cc2)cc1CN1CCCN(C)CC1 | 672 | – |
| COc1cc2ccccc2c(OC)c1CNCCCCCCNCc1c(OC)cc2ccccc2c1OC | 988 | – |

| SMILES | XC50 (Plasmodium falciparum, 3D7) [nM] | XC50 [nM] |
| --- | --- | --- |
| CC(C)(CNC(=O)[C@@H]1CCCN(Cc2ccc(Cl)cc2)C1)c1nc(-c2ccc(Cl)c(O)c2)c(-c2ccncc2)[nH]1 | 941 | – |
| COc1ccc(S(=O)(=O)Nc2cc(C)cc(Br)c2OC)cc1N1CCN(C(=O)C(Cl)(Cl)Cl)CC1 | 871 | – |
| COCCNCc1cccc(-c2cc3nccc(Nc4ccc(Oc5ccccc5)cc4)c3cc2Cl)c1 | 1380 | – |
| COc1ccc(S(=O)(=O)Nc2ccc(C(=O)NCc3ccc(C(F)(F)F)cc3)cc2)cc1N1CCN(CC2CC2)CC1 | 1120 | – |
| Oc1ccc(CCNCCCCCCNCCc2ccc(Br)cc2)cc1O | 1020 | – |
| CS(=O)(=O)CCNC(=O)c1ccc(-c2cc3c(Nc4ccc5c(cnn5Cc5ccccc5)c4)ncnc3cn2)o1 | 995 | – |
| O=C(C=Cc1cn(-c2ccccc2)nc1-c1cccs1)N1CCN(c2ccncc2)CC1 | 721 | – |
| COc1cc2nc(NC3CCN(Cc4ccccc4)CC3)nc(N)c2cc1OC | 166 | – |
| Cc1[nH]c(C)c(-c2ccc(Oc3ccccc3)cc2)c(=O)c1Br | 46.8 | – |
| CN(C)c1ccc(CN2CCCC(CNC(=O)c3ccc(-c4cccc(C(F)(F)F)c4)s3)C2)cc1 (stereo unspecified) | 1200 | – |
| Cc1cc(C)c2oc(-c3cccc(NC(=O)c4ccc([N+](=O)[O-])o4)c3C)nc2c1 | 1150 | – |
| Cc1ccccc1C1CCN(C2CCC(NC(=O)c3cc4cc(Cl)ccc4o3)CC2)CC1 (stereo unspecified) | 1200 | – |
| CS(=O)(=O)Nc1ccc2[nH]cc(C3CC4CCC(C3)N4CC3CCC(NC(=O)/C=C/c4ccc(Cl)c(Cl)c4)CC3)c2c1 (stereo unspecified) | 872 | – |
| CC(=O)Nc1cccc(CNc2cc(C)nc(Nc3ccc(C)cc3)n2)c1 | 1140 | – |
| Nc1ccncc1C(=O)NCCCCN1CCN(c2nsc3ccccc23)CC1 | 803 | – |
| CCCCCc1cc(O)c2c(c1)OC(C)(C)c1ccncc1-2 | 763 | – |
| OC(CNc1ccnc(Nc2ccccc2)n1)c1ccc(C(F)(F)F)cc1 (stereo unspecified) | 606 | – |
| CCc1cc2c(=O)c(-c3nc(C)cs3)c([C@H](N)Cc3ccc(O)cc3)oc2cc1O | 902 | – |
| O=C(COc1ccc(C(=O)c2ccccc2)cc1)Nc1nccs1 | 887 | – |
| CCc1cccc(NC(=O)c2ccc(CN3CCCN(CC4CCCCC4)CC3)cc2)c1 | 402 | – |
| N[C@@H](Cc1ccc(O)cc1)C(=O)NC(c1ccccc1)c1c(O)ccc2ccccc12 (stereo partly specified) | 694 | – |
| COc1cc(F)c2ncc(C#N)c(CCN3CCC(NCc4ccc5c(c4)OCCO5)CC3)c2c1 | 428 | – |
| CC(C)(C)C/C=C\c1ccc(C(=O)NCC2CC2)cc1 | 850 | – |
| CCCCCCCCCN(CCC)C(=O)[C@@H]1OC(C(=O)OC(c2ccccc2)c2ccccc2)=C[C@H](NC(=O)OC(C)(C)C)[C@H]1NC(C)=O | 640 | – |

| SMILES | XC50 (Plasmodium falciparum, 3D7) [nM] | XC50 [nM] |
| --- | --- | --- |
| Cc1cccc(Nc2c(-c3cc(Br)ccc3O)nc3ncccn23)c1 | 206 | – |
| COCC(C)n1c(C)cc(C(=O)CSc2nnc(Nc3ccccc3)s2)c1C (stereo unspecified) | 736 | – |
| COc1c(C2CCN(CCCCNC(=O)c3cccc(-c4ccc(C(F)(F)F)cc4)c3)CC2)ccc2c1CCCC2 | 777 | – |
| CCCCNCc1ccc(-c2nc(CN(CCCn3ccnc3)C(=O)C3COc4ccccc4O3)cs2)cc1 (stereo unspecified) | 892 | – |
| Cc1cccc2nc(-c3cccc(-c4ccc(NC(=O)Cc5ccc[n+]([O-])c5)cc4)c3)[nH]c12 | 627 | – |
| CCc1ccc(NC(=O)c2ccc(CN3CCCN(Cc4cccs4)CC3)cc2)cc1 | 827 | – |
| CN(C)CCCOc1ccc(-c2csc(NC(=N)NCc3ccccc3)n2)cc1 | 278 | – |
| Cn1nc(C(F)(F)F)cc1-c1ccc(C(=O)Nc2ccc3c(c2)CNCC3(C)C)s1 | 1010 | – |
| CCCC(=O)c1cnc2c(OCCCc3c[nH]cn3)cccc2c1Nc1c(C)cccc1C | 338 | – |
| COCCN1CCC(C(=O)NCC(C)(C)c2nc(-c3ccc(Br)c(O)c3)c(-c3ccncc3)[nH]2)CC1 | 911 | – |
| CCc1cn(CCS(C)(=O)=O)c2ccc(C(=O)N[C@@H](Cc3ccccc3)[C@H](O)CNC(C)(C)CCCC(C)C)cc12 | 877 | – |
| Cc1ccc(S(=O)(=O)N2CCN(C(=O)c3cc(-c4ccccc4)n[nH]3)CC2)cc1 | 603 | – |
| Cc1nccn1CCNC(=O)CN1CCC2(CCC1=O)CC(=O)c1ccccc1O2 (stereo unspecified) | 802 | – |
| Cc1cccc2nc(-c3cccc(-c4ccc(NC(=O)COC(C)C)cc4)c3)[nH]c12 | 1190 | – |
| Brc1cccc(Nc2nccc(Nc3ccc(Oc4ccccc4)cc3)n2)c1 | 1010 | – |
| CCCCN(C)CC#Cc1ccc2[nH]c(C)c(Cl)c(=O)c2c1 | 130 | – |
| NCc1ccc(CNCc2cccc(-c3ccc(-c4nc5cc(C(F)(F)F)ccc5[nH]4)cc3)c2)cc1 | 261 | – |
| Cc1cc2c3c(N)nc(N)nc3ccc2n1C | 90.1 | – |
| Cc1[nH]c(C)c(-c2ccc(Oc3ccc(Cl)cc3)cc2)c(=O)c1Cl | 787 | – |
| COC(=O)c1cccc(CNCc2cccc(-c3ccc(-c4nc5cccc(C)c5[nH]4)cc3)c2)c1 | 322 | – |
| CC1(C)N=C(N)N=C(N)N1c1ccc2ccccc2c1 | 53.8 | – |
| COc1cc(Cc2cnc(N)nc2N)ccc1OCc1ccc(F)c(F)c1 | 910 | – |
